In this test the test system is T1, HcPT.
T1 construct: pFastBac1 baculovirus, microsomes of Sf9 insect cells
Description: HPLC-DAD prenylation assay with Sf9 microsomes, Lineweaver-Burk. It is filed as biochemical, Hypericum calycinum. The note with it: 4 mM MgCl2, 0.5 mM dithiothreitol, 50 mM potassium phosphate pH 7.5, 40 °C, 30 min.

This is an account of results in PMC6332024, “Molecular Cloning and Characterization of a Xanthone Prenyltransferase from Hypericum calycinum Cell Cultures” (Molecules, 2015).

For the molecule `O=c1c2cc(O)c(O)cc2oc2cc(O)cc(O)c12` [1,3,6,7-THX, 1,3,6,7-tetrahydroxyxanthone], the Km (400 µM DMAPP constant) was determined as 211 ± 16 µM.
`CC(C)=CCOP(=O)(O)OP(=O)(O)O` [DMAPP, dimethylallyl diphosphate]: the Km (500 µM 1,3,6,7-tetrahydroxyxanthone constant) is 87 ± 5 µM.
